Experiments:
VEGFR-2 = VEGFR-2 (Homo sapiens (Human), UniProt P35968); experiment: VEGFR-2 kinase inhibition assay (Millipore IC50Profiler); format: biochemical
Text: (§1) GSK-3β, VEGFR-2, FLT-3 Kinase Inhibition Assays
(§2) Detailed protocols can be found at: www.millipore.com/drugdiscovery/dd3/assayprotocols.

MKN-45 = experiment: Nicoletti apoptosis assay in MKN-45 cells; format: cell-based, human
Method: (§3) Nicoletti Apoptosis Assay by Cell Cycle Analysis
(§4) Cancer cells were transferred to 12-well flat-bottomed plates. […] Subsequently, cells were incubated in 1 ml medium containing various concentrations of test compounds at 37° C. with 5% CO2. After incubation the cells were washed with PBS, trypsinized, pelleted and mixed with PI buffer (containing 0.1% sodium citrate, 0.1% triton X-100, […] propidium iodide (PI)) and incubated for 1 hour at 4° C. Cell cycle sub-G1 fraction analysis was performed as described previously (Nicoletti, I. et al. (1991) J. Immunol. Methods 139, 271-279) using a flow cytometer (BD FACS Calibur™, BD Biosciences, Heidelberg, Germany). Each experiment was done in triplicate.

HUVEC = experiment: Nicoletti apoptosis assay (sub-G1 fraction) in HUVEC; format: cell-based, human; details: 4 days, untreated 15.4 ± 1.5%
Method: as §3, §4
The same analysis was performed with HUVEC cells. 1.5×10^4 cells were plated into each well and treated with test compounds for 4 days.
Human Umbilical Vein Endothelial Cells (HUVEC) known for mitogenic specifity for VEGF were obtained from the Department of Pathology, University Hospital of Mainz, Germany. The cells were cultured in M199 supplemented with 20% FCS, 1% Pen/Strep, 0.34% GlutaMAX-I, 25 μg/ml Endothelial Cell Growth Supplement (BD Biosciences), 25 μg/ml Heparin sodium (179 USP units/mg; Sigma, Germany) and were maintained at 37° C. and 5% CO2.

HT-29 = experiment: Nicoletti apoptosis assay in HT-29 cells; format: cell-based, human
Method: as §3, §4

Caco-2 = experiment: Nicoletti apoptosis assay in Caco-2 cells; format: cell-based, human
Method: as §3, §4

[1] = system: HT-29 human colon adenocarcinoma cells; experiment: MTT viability assay in HT-29 cells; details: HT-29, 72 h, read-out: Viability of HT-29 cells as determined by MTT assay
Method: Evaluation of Effect on Viability (MTT Assay)
The antiproliferative activity of test compounds was determined by the 3-(4,5-dimethylthiazol-2-yl)-2,5-diphenyltetrazolium bromide (MTT) assay as described previously (Mosmann, T. et al. (1983) J. Immunol. Methods 65, 55-63). Cells in the exponential growth phase were transferred to 96-well flat-bottom plates. 10,000 viable cells contained in 200 μl cell suspension were plated into each well and incubated over night. Cells were then exposed to various concentrations of test compounds (100 μl/well) for 3 days at 37° C. with 5% CO2. Subsequently, 10 μl/well MTT stock solution (5 mg/ml; Biomol, Germany) was added and the cells were incubated at 37° C. with 5% CO2 for 4 hours. 100 μl solubilization solution (10% SDS in 0.01 M HCl) was added and the cells were incubated at 37° C. with 5% CO2 over night. Plates were read on an ELISA-Reader ELX 800 (BIO-TEK Software KC 4) at 562 nm absorbance. Each experiment was done in triplicate.
HCT-116, HT-29 and SW480 cells were cultured in RPMI1640 supplemented with 10% FCS. […] All cells were maintained at 37° C. and 5% CO2.

GSK-3β = GSK-3β (Homo sapiens (Human), UniProt P49841); experiment: GSK-3β kinase inhibition assay (Millipore IC50Profiler); format: biochemical
Sequence of GSK-3β (P49841 whole entry): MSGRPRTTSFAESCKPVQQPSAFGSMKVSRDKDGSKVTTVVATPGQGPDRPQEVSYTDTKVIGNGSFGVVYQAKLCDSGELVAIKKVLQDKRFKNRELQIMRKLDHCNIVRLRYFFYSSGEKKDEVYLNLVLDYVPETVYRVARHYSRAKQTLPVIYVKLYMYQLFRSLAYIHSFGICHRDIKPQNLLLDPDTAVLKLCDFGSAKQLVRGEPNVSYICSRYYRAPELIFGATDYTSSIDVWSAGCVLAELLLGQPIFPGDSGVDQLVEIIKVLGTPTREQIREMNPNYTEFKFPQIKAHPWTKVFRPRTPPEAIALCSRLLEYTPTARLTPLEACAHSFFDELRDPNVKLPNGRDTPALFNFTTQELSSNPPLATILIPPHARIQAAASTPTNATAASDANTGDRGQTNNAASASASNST
Text: as §1, §2

SW480 = experiment: Nicoletti apoptosis assay in SW480 cells; format: cell-based, human
Method: as §3, §4

[2] = system: chick embryo microvessel formation; experiment: Quantitative chick embryo in vivo assay of antiangiogenic activity; details: Gallus gallus; 26 nM drug concentration/pellet; 24 hours incubation; read-out: Inhibition of microvessel area
Method: Evaluation of Antiangiogenic Activity in a Quantitative Chick Embryo In Vivo Assay
The inhibition of angiogenesis (new blood vessel formation) was measured as described in WO2006/061212.

HCT-116 = experiment: Nicoletti apoptosis assay in HCT-116 cells; format: cell-based, human
Method: as §3, §4

FLT-3 = FLT-3 (Homo sapiens (Human), UniProt P36888); experiment: FLT-3 kinase inhibition assay (Millipore IC50Profiler); format: biochemical
Sequence of FLT-3 (P36888 27-993): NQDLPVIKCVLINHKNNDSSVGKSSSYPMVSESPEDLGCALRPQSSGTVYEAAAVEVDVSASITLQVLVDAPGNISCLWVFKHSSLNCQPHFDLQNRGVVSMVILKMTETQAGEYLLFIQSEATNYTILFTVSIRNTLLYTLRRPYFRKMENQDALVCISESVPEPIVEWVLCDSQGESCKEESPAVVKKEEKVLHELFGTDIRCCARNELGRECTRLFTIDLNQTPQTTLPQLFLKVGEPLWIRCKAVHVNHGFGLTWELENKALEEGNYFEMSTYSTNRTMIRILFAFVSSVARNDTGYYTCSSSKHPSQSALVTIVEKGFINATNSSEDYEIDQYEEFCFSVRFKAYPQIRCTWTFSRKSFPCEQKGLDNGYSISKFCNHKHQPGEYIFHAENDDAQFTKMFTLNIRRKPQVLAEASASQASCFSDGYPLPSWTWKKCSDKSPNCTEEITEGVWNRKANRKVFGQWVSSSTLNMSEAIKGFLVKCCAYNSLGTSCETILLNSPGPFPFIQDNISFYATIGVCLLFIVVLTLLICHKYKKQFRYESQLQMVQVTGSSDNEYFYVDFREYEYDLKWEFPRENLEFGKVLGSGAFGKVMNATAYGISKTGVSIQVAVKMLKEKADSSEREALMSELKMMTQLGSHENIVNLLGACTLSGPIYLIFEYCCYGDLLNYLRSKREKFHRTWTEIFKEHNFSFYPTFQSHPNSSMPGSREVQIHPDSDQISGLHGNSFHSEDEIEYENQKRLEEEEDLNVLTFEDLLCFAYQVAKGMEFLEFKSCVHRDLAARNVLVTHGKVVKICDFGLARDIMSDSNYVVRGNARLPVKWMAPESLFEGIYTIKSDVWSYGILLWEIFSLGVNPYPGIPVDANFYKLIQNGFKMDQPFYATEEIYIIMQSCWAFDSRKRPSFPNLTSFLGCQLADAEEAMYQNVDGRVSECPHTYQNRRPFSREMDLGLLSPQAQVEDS
Method: as §1
The effect of test compounds on the activity of the protein kinases GSK-3β, VEGFR-2 and FLT-3 was evaluated based on half maximal inhibitory concentration (IC50) values determined by Millipore UK Ltd; Gemini Crescent; Dundee Technology Park; Dundee DD2 1SW; UK (IC50Profiler). Detailed protocols can be found at: www.millipore.com/drugdiscovery/dd3/assayprotocols.

[3] = Table 6, 7.9 μM comp. A plus 1.18 μM irinotecan
[4] = Table 6, 7.9 μM compound A alone
[5] = Table 7, 7.9 μM compound A alone
[6] = Table 7, 7.9 μM compound A plus 20 nM topotecan
[7] = Table 8, HT-29, 7.9 μM test compound alone, drug-free control 3.4 ± 0.9%
[8] = Table 8, HT-29, 7.9 μM test compound plus 1.18 μM irinotecan
[9] = Table 6, 1.18 μM irinotecan alone

Sequence of VEGFR-2 (P35968 20-1356): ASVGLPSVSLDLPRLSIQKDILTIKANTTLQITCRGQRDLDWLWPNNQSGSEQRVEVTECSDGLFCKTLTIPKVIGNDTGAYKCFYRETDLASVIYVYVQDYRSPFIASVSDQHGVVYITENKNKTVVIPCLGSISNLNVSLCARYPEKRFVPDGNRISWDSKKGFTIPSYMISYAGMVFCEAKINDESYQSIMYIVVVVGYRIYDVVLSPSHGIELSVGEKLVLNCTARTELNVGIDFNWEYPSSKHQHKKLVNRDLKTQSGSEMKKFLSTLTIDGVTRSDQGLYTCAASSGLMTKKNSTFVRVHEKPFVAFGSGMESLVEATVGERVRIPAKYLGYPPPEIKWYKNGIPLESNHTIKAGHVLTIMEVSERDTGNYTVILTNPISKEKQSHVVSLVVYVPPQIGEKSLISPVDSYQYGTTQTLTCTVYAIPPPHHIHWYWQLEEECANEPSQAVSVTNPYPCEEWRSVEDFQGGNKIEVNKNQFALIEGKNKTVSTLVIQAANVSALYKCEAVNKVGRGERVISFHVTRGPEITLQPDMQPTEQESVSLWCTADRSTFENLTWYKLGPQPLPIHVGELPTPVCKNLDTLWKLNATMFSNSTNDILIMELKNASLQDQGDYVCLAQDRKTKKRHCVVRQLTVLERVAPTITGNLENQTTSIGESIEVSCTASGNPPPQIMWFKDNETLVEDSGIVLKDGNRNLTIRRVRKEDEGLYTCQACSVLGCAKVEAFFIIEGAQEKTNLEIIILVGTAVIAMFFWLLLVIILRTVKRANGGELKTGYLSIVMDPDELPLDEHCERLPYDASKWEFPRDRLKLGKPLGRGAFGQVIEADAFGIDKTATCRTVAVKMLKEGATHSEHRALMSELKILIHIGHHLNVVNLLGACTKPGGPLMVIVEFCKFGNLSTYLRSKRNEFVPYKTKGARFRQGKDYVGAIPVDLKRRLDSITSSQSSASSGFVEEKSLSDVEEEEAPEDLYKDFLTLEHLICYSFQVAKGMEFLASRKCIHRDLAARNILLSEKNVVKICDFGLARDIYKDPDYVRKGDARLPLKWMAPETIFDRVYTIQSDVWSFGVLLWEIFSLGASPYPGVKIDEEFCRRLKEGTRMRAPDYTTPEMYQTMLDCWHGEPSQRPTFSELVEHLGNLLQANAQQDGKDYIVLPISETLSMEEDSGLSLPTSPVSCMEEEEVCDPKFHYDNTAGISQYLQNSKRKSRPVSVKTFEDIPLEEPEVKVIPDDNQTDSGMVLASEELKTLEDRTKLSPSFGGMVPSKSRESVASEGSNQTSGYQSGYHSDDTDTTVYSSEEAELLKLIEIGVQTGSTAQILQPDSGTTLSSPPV

COc1cc(C2=C(c3c[nH]c4ccccc34)C(=O)NC2=O)cc(OC)c1OC [A, 3-(1H-indol-3-yl)-4-(3,4,5-trimethoxyphenyl)-maleinimid]
IC50 (VEGFR-2): 90 nM | VEGFR-2 IC50 values, in words (VEGFR-2; Table 2): low nanomolar range | Sub-G1 Fraction (MKN-45; [3]): 51.44 ± 0.2% | Sub-G1 Fraction (MKN-45; [4]): 20.16 ± 1.6% | Sub-G1 Fraction (MKN-45; [5]): 20.2 ± 1.6% | Sub-G1 Fraction (MKN-45; [6]): 61.1 ± 1.2% | Sub-G1 Fraction (HUVEC; 0.79 μM): 25. ± 0.9% | Sub-G1 Fraction (HUVEC; 2.6 μM): 87.7 ± 2.3% | Sub-G1 Fraction (HUVEC; 7.9 μM): 88.9 ± 4.0% | Combined effect of compound A and low dosed irinotecan on apoptosis, in words (HT-29; HT-29): Significant synergistic effects | Combined effect of compound A and topotecan on apoptosis, in words (HT-29; HT-29): synergistically inhibited apoptosis | Induction of apoptosis in combination with irinotecan compared with vandetanib or sunitinib, in words (HT-29; HT-29, 7 days combination treatment with irinotecan): greater induction of apoptosis | Sub-G1 Fraction (HT-29; Table 6, HT-29, 7.9 μM comp. A plus 1.18 μM irinotecan): 57.40 ± 1.6% | Sub-G1 Fraction (HT-29; Table 6, HT-29, 7.9 μM compound A alone): 5.90 ± 0.6% | Sub-G1 Fraction (HT-29; Table 7, HT-29, 7.9 μM compound A alone): 5.9 ± 0.6% | Sub-G1 Fraction (HT-29; Table 7, HT-29, 7.9 μM compound A plus 20 nM topotecan): 65.6 ± 1.8% | Sub-G1 Fraction (HT-29; [7]): 4.70 ± 0.50% | Sub-G1 Fraction (HT-29; [8]): 53.10 ± 3.30% | Sub-G1 Fraction (HT-29; Table 9, HT-29, 7.9 μM compound A plus 1.18 μM Irinotecan, 7 days): 49.8 ± 1.30% | Sub-G1 Fraction (HT-29; Table 9, HT-29, single-agent treatment, 7.9 μM compound A, 7 days): 8.9 ± 0.8% | Combined effect of compound A and low dosed irinotecan on apoptosis, in words (Caco-2): Significant synergistic effects | Sub-G1 Fraction (Caco-2; [3]): 43.70 ± 2.2% | Sub-G1 Fraction (Caco-2; [4]): 6.00 ± 2.3% | Sub-G1 Fraction (Caco-2; [5]): 5.9 ± 0.6% | Sub-G1 Fraction (Caco-2; [6]): 52.07 ± 2.84% | viability at 2.6 µM [1]: 78.5 ± 3.7% | viability at 7.9 µM [1]: 62.9 ± 1.5% | viability at 26 µM [1]: 53.9 ± 4.8% | viability at 52 µM [1]: 42.8 ± 1.6% | IC50 (GSK-3β): 1100 nM | Combined effect of compound A and low dosed irinotecan on apoptosis, in words (SW480): Significant synergistic effects | Sub-G1 Fraction (SW480; [3]): 32.21 ± 0.40% | Sub-G1 Fraction (SW480; [4]): 9.96 ± 2.3% | Sub-G1 Fraction (SW480; [5]): 10 ± 2.3% | Sub-G1 Fraction (SW480; [6]): 38.81 ± 0.88% | inhibition at 0.026 µM [2]: 82% | Combined effect of compound A and low dosed irinotecan on apoptosis, in words (HCT-116): Significant synergistic effects | Sub-G1 Fraction (HCT-116; [3]): 27.90 ± 3.4% | Sub-G1 Fraction (HCT-116; [4]): 3.70 ± 2.8% | IC50 (FLT-3): 166 nM | FLT-3 inhibition, in words (FLT-3; Table 2): most significantly inhibited

COc1cc(C2=C(c3c[nH]c4ccc(F)cc34)C(=O)NC2=O)cc(OC)c1OC [O, 3-(5-Fluoro-1H-indol-3-yl)-4-(3,4,5-trimethoxyphenyl)-maleinimide]
melting point: 232 to 233 °C | IC50 (VEGFR-2): 182 nM | Sub-G1 Fraction (HUVEC; 0.79 μM): 16.0 ± 1.2% | Sub-G1 Fraction (HUVEC; 2.6 μM): 73.3 ± 3.2% | Sub-G1 Fraction (HUVEC; 7.9 μM): 90.6 ± 5.4% | Activity in combination with irinotecan relative to compound A, in words (HT-29; HT-29 cells, combination with irinotecan): at least comparable with compound A | Sub-G1 Fraction (HT-29; [7]): 3.26 ± 2.14% | Sub-G1 Fraction (HT-29; [8]): 49.69 ± 2.96% | viability at 2.6 µM [1]: 47.83 ± 0.34% | viability at 7.9 µM [1]: 35.5 ± 0.71% | viability at 26 µM [1]: 42.1 ± 0.58% | viability at 52 µM [1]: 17.6 ± 1.81% | inhibition at 0.026 µM [2]: 63%

CCc1c2c(nc3ccc(OC(=O)N4CCC(N5CCCCC5)CC4)cc13)-c1cc3c(c(=O)n1C2)COC(=O)[C@]3(O)CC [irinotecan, reference compound]
Sub-G1 Fraction (MKN-45; [9]): 28.97 ± 1.15% | Sub-G1 Fraction (HT-29; Table 6, HT-29, 1.18 μM irinotecan alone): 17.40 ± 0.98% | Induction of apoptosis under irinotecan single application (Sub-G1 Fraction) (HT-29; Table 8, HT-29): Induction of apoptosis under irinotecan single application 18.3 ± 1.1% | Induction of apoptosis under irinotecan single application (Sub-G1 Fraction) (HT-29; Table 9, HT-29): Induction of apoptosis under irinotecan single application 17.4 ± 0.6% | Sub-G1 Fraction (Caco-2; [9]): 18.80 ± 0.8% | Sub-G1 Fraction (SW480; [9]): 9.61 ± 0.91% | Sub-G1 Fraction (HCT-116; [9]): 9.86 ± 2.4%

CC[C@@]1(O)C(=O)OCc2c1cc1n(c2=O)Cc2cc3c(CN(C)C)c(O)ccc3nc2-1 [topotecan, reference compound]
Sub-G1 Fraction (MKN-45; Table 7, 20 nM topotecan alone): 26.15 ± 0.49% | Sub-G1 Fraction (HT-29; Table 7, HT-29, 20 nM topotecan alone): 7.9 ± 0.8% | Sub-G1 Fraction (Caco-2; Table 7, 20 nM topotecan alone): 31.5 ± 0.08% | Sub-G1 Fraction (SW480; Table 7, 20 nM topotecan alone): 13.34 ± 0.3%
